Assay results as given in paper PMC11231114 (EJNMMI Research, 2024).

What was measured:
[1] = Ex vivo biodistribution after i.v. injection; assay type: in vivo, Wistar rats
Experimental: Approximately 0.2 mL/31.1 MBq of compound was administered i.v. At established time points after injection (15 min, 30 min, 1 h, 2 h, 4 h and 6 h), the animals were euthanized by cervical dislocation and dissected. Selected organs and tissues were weighed, and their radioactivity was measured using a NaI(Tl) crystal gamma counter. The results were adjusted for the radioactive decay of ^18F. The physiological distribution was calculated and expressed in terms of the percentage of administrated dose found in each of the selected organs (%ID) or per gram of tissues/organ (%ID/g) with suitable standards of the injected dose.
The results of radiopharmaceutical uptake are presented as a percentage of the dose administered per gram of tissue (%ID/g) in the form of an average with standard deviation (%ID/g; mean ± standard deviation (SD)). Where applicable, statistical analysis was performed with one-way analysis of variance (ANOVA) using GraphPad Prism software (GraphPad Software, La Jolla, CA, USA).

[2] = Dynamic microPET/CT imaging
Experimental: The scans were performed on a trimodal small animal scanner Albira Si PET/SPECT/CT Preclinical Imaging System (Bruker, Billerica, MA, USA) in a group of Wistar rats anesthetized with isoflurane (induction 4%, maintenance 1.5-2%).

[3] = 6 h after dosing, listed as [18F]SYN2

SMILES: CN(C)c1ccc2cc3ccc(N(C)C)cc3[n+](CC[18F])c2c1 [[^18F]SYN2]
- Mean %ID, Intestine ([1]; 2 h after dosing): 25.93 (2.92) %ID
- Mean %ID, Kidneys ([1]; 2 h after dosing): 9.65 (1.42) %ID
- Mean %ID, Liver ([1]; 2 h after dosing): 2.46 (0.28) %ID
- Mean %ID, Lungs ([1]; 2 h after dosing): 1.25 (0.31) %ID
- Mean %ID, Pancreas ([1]; 2 h after dosing): 0.94 (0.22) %ID
- Mean %ID, Rest of the body ([1]; 2 h after dosing): 44.09 (5.00) %ID
- Mean %ID, Spleen ([1]; 2 h after dosing): 0.44 (0.04) %ID
- Mean %ID, Stomach ([1]; 2 h after dosing): 1.66 (0.16) %ID
- Mean %ID, Urine ([1]; 2 h after dosing): 3.94 (3.35) %ID
- Mean %ID/g, Blood ([1]; 2 h after dosing): 0.04 (0.00) %ID/g
- Mean %ID/g, Brain ([1]; 2 h after dosing): 0.07 (0.00) %ID/g
- Mean %ID/g, Heart ([1]; 2 h after dosing): 2.58 (0.24) %ID/g
- Mean %ID/g, Intestine ([1]; 2 h after dosing): 1.50 (0.24) %ID/g
- Mean %ID/g, Kidneys ([1]; 2 h after dosing): 5.10 (0.85) %ID/g
- Mean %ID/g, Liver ([1]; 2 h after dosing): 0.30 (0.04) %ID/g
- Mean %ID/g, Lungs ([1]; 2 h after dosing): 0.90 (0.22) %ID/g
- Mean %ID/g, Muscle ([1]; 2 h after dosing): 0.41 (0.09) %ID/g
- Mean %ID/g, Pancreas ([1]; 2 h after dosing): 1.55 (0.36) %ID/g
- Mean %ID/g, Spleen ([1]; 2 h after dosing): 0.84 (0.11) %ID/g
- Mean %ID/g, Stomach ([1]; 2 h after dosing): 1.23 (0.22) %ID/g
- Mean %ID, Brain ([1]; 4 h after dosing): 0.25 (0.04) %ID
- Mean %ID, Heart ([1]; 4 h after dosing): 2.15 (0.08) %ID
- Mean %ID, Intestine ([1]; 4 h after dosing): 30.51 (0.47) %ID
- Mean %ID, Kidneys ([1]; 4 h after dosing): 5.20 (0.36) %ID
- Mean %ID, Liver ([1]; 4 h after dosing): 1.71 (0.27) %ID
- Mean %ID, Lungs ([1]; 4 h after dosing): 0.89 (0.02) %ID
- Mean %ID, Pancreas ([1]; 4 h after dosing): 0.84 (0.35) %ID
- Mean %ID, Rest of the body ([1]; 4 h after dosing): 44.50 (2.38) %ID
- Mean %ID, Spleen ([1]; 4 h after dosing): 0.32 (0.03) %ID
- Mean %ID, Stomach ([1]; 4 h after dosing): 1.94 (0.38) %ID
- Mean %ID, Urine ([1]; 4 h after dosing): 12.42 (1.40) %ID
- Mean %ID/g, Blood ([1]; 4 h after dosing): 0.06 (0.02) %ID/g
- Mean %ID/g, Brain ([1]; 4 h after dosing): 0.13 (0.02) %ID/g
- Mean %ID/g, Heart ([1]; 4 h after dosing): 2.68 (0.44) %ID/g
- Mean %ID/g, Intestine ([1]; 4 h after dosing): 1.88 (0.10) %ID/g
- Mean %ID/g, Kidneys ([1]; 4 h after dosing): 2.86 (0.08) %ID/g
- Mean %ID/g, Liver ([1]; 4 h after dosing): 0.21 (0.05) %ID/g
- Mean %ID/g, Lungs ([1]; 4 h after dosing): 0.70 (0.02) %ID/g
- Mean %ID/g, Muscle ([1]; 4 h after dosing): 0.51 (0.04) %ID/g
- Mean %ID/g, Pancreas ([1]; 4 h after dosing): 1.56 (0.06) %ID/g
- Mean %ID/g, Spleen ([1]; 4 h after dosing): 0.66 (0.06) %ID/g
- Mean %ID/g, Stomach ([1]; 4 h after dosing): 1.58 (0.25) %ID/g
- Mean %ID, Brain ([1]; 6 h after dosing): 0.21 (0.02) %ID
- Mean %ID, Heart ([1]; 6 h after dosing): 2.27 (0.21) %ID
- Mean %ID, Intestine ([1]; 6 h after dosing): 33.4 ± 1.4 %ID
- Mean %ID, Kidneys ([1]; 6 h after dosing): 3.4 ± 0.4 %ID
- Mean %ID, Liver ([1]; 6 h after dosing): 1.07 (0.11) %ID
- Mean %ID, Lungs ([1]; 6 h after dosing): 0.78 (0.14) %ID
- Mean %ID, Pancreas ([1]; 6 h after dosing): 0.80 (0.05) %ID
- Mean %ID, Rest of the body ([1]; 6 h after dosing): 44.67 (1.68) %ID
- Mean %ID, Spleen ([1]; 6 h after dosing): 0.29 (0.02) %ID
- Mean %ID, Stomach ([1]; 6 h after dosing): 1.53 (0.15) %ID
- Mean %ID, Urine ([1]; 6 h after dosing): 15.27 (0.87) %ID
- Mean %ID/g, Blood ([1]; 6 h after dosing): 0.04 (0.01) %ID/g
- Mean %ID/g, Brain ([1]; 6 h after dosing): 0.13 (0.01) %ID/g
- Mean %ID/g, Heart ([1]; 6 h after dosing): 2.79 %ID/g
- Mean %ID/g, Intestine ([1]; 6 h after dosing): 2.00 (0.49) %ID/g
- Mean %ID/g, Kidneys ([1]; 6 h after dosing): 1.69 (0.22) %ID/g
- Mean %ID/g, Liver ([1]; 6 h after dosing): 0.12 (0.02) %ID/g
- Mean %ID/g, Lungs ([1]; 6 h after dosing): 0.55 (0.08) %ID/g
- Mean %ID/g, Muscle ([1]; 6 h after dosing): 0.53 (0.05) %ID/g
- Mean %ID/g, Pancreas ([1]; 6 h after dosing): 1.27 (0.10) %ID/g
- Mean %ID/g, Spleen ([1]; 6 h after dosing): 0.56 (0.02) %ID/g
- Mean %ID/g, Stomach ([1]; 6 h after dosing): 1.12 (0.12) %ID/g
- Mean %ID, Intestine [1, 3]: 33.42 (1.37) %ID
- Mean %ID, Kidneys [1, 3]: 3.44 (0.37) %ID
- retention in all other organs examined (other than intestine, kidneys) ([1]; ex vivo biodistribution): < 2 %ID/g
- myocardial uptake ([1]; from 2 to 6 h): 2.6–2.8 %ID/g
- uptake in the myocardium ([1]; up to 6 h): higher than 2.5 %ID/g
- myocardial uptake ([1]; within 1-hour post-injection): about 3.0 %ID/g
- SUV in the myocardium, plateau ([2]; after 6 min): 3.5
- SUV in the liver ([2]; at 45 min): 1.9
- SUV in the myocardium at the beginning ([2]; dynamic microPET): 4.0
- SUVmax in the liver ([2]; dynamic microPET): 2.9
- average standardized uptake value, myocardial uptake ([2]; dynamic microPET): 3.8
